From patent EP0078757A1, “Imines of 2-(4-phenyl-piperazinylethyl) anilines, process for their preparation and their use in medicine” (CORTIAL S.A., priority 1981, dated 1983)
Read-outs that look alike come from different tables or passages of the source.

Experiments:
[1] = tested on: anaphylaxie passive cutanée; experiment: Passive cutaneous anaphylaxis test in rats; assay type: in vivo, rats mâles Sprague Dawley; details: for ED50: read-out: DE 50 voie po
Method: L'activité antiallergique a été déterminée dans le test de l'anaphylaxie passive cutanée de la façon suivante. On administre à des rats mâles Sprague Dawley par voie intradermique 0,1 ml de sérum riche en IgE. Ce sérum a été fabriqué en sensibilisant des rats Sprague-Dawley par une injection ip d'ovalbumine et de suspension de Bordetella pertusis suivie 20 j après par une nouvelle injection d'ovalbumine. 24 heures après administration du sérum on injecte par voie iv 0,5 ml d'une solution contenant 8,25 mg/kg d'ovalbumine et 26,4 mg/kg de bleu d'Evans dans un tampon pH 7,05. Au bout de 30 mn les animaux sont sacrifiés; chaque papule est découpée, pesée et mise à incuber pendant 4 j à 37°C dans 15 g de formamide. La quantité de bleu d'Evans contenue dans chaque papule est déterminée par la mesure de la densité optique du mélange. Le produit à tester est administré par voie orale ou intrapéritonéale en suspension homogène en présence de tween 80, 10 mn avant l'injection déclenchante. Son activité est appréciée par le pourcentage de diminution de la quantité de bleu d'Evans ayant diffusé dans la papule. Les DE 50 de certains produits de la présente invention sont indiquées dans le tableau V.

[2] = tested on: motilité chez la souris; experiment: Motility (actimeter) in mice, sedative effect; assay type: in vivo; details: ip route, mouse, Litchfield Wilcoxon method
Text: L'effet des substances sur la motilité est appréciée chez la souris en utilisant un actimètre. Les animaux sont placés dans la cage d'activométrie et à partir du nombre de déplacements enregistrés par l'appareil,on obtient pour chaque dose considérée le pourcentage de l'effet observé par rapport au lot témoin. Ces pourcentages sont reportés sur un papier à l'échelle log-probit et la méthode de Litchfield Wilcoxon permet de calculer la dose efficace 50 sédative. Le tableau VI donne les DE 50 sédatives pour un certain nombre de produits faisant l'objet de l'invention.

[3] = tested on: souris Swiss; experiment: Oral (intragastric) toxicity, mortality in mice; assay type: in vivo; details: mouse, solvent as in the source
Text: La mortalité induite par ces substances a été déterminée chez la souris Swiss exempte d'organismes pathogènes spécifiques. Les animaux sont stabulés en salle climatisée 24 à 48 heures avant le début de l'expérimentation. Les substances sont administrées soit par voie intragastrique en solution dans de l'huile d'olive ou du tween, soit par voie intrapéritonéale en solution dans du tween. Les résultats sont exprimés dans les tableaux I et II par le pourcentage de mortalité en fonction de la dose administrée ou par la dose induisant 50 % de mortalité (DL 50) déterminée par la méthode de Bliss.

[4] = oral route, rat, given 10 min before challenge, decrease of Evans blue in the papule, limits in brackets

## (phényl-4pipérazinyléthyl)-2 N-pyridylidène-3 aniline [COR 3412]
[1]; intraperitoneal route, rat, given 10 min before challenge, decrease of Evans blue in the papule, limits in brackets
  DE 50 voie ip: 7,52 (3,31 - 17,38) mg/kg
[1]; [4]
  DE 50 voie po: 11,9 (7,9 - 18,2) mg/kg
[2]
  DE 50 sédation: 4 mg/kg

## (((trifluorométhyl-3 phényl)-4 pipérazinyl)-2 éthyl)-6 N-pyridylidène-3 benzodioxol-1,3 yl-5 amine [COR 3415]
[1]; [4]
  DE 50 voie po: 20 mg/kg
[3]; dose 500 mg/kg
  % de mortalité en fonction de la dose exprimée en mg/kg: 0%
[3]; dose 750 mg/kg
  % de mortalité en fonction de la dose exprimée en mg/kg: 50%
[3]; dose 1000 mg/kg
  % de mortalité en fonction de la dose exprimée en mg/kg: 60%
[3]; dose 2000 mg/kg
  % de mortalité en fonction de la dose exprimée en mg/kg: 70%

## CN(C)CCCN1c2ccccc2Sc2ccc(Cl)cc21 [Chlorpromazine, reference compound]
[1]; Rattus norvegicus, po
  ED50: 4.9 mg/kg

## CC(CN1c2ccccc2Sc2ccccc21)N(C)C (stereo not shown) [Prométhazine, reference compound]
[1]; [4]
  ED50: 2.9 mg/kg
